Experimental data taken from publication PMC3810134, “Substrate and Inhibitor Specificity of the Type II p21-Activated Kinase, PAK6” (PLoS ONE, 2013).
Like-named read-outs stand apart in the source and are kept apart here. No end group written: not given here.

Key:
[1] = tested on: PAK kinases; settings: ref [41], cited from earlier work
Description: (§1) Therefore understanding how sunitinib binds to the type II PAKs may represent a starting point for future small molecule drug discovery. There are currently 6 co-crystal structures of protein kinases in complex with sunitinib deposited in the PDB. These kinases are of VEGFR (4AGD), KIT (3G0E), KIT-D816H mutation (3G0F), ITK (3MIY), CDK2 (3TI1) and phosphorylase kin ...

[2] = molecular target: type II PAKs; settings: range over the family, ref [41], read-out: Ki (estimated range); cited from earlier work
Description: as §1

[3] = molecular target: T1, PAK6 catalytic domain (residues 383–674) (Homo sapiens, UniProt Q9NQU5); assay: In vitro PAK6 kinase assay (trans-inhibition by peptides, MBP substrate, radioactive); format: biochemical
T1 construct: recombinant PAK6 catalytic domain (residues 383–674) purified as described above; 6xHis (N, cleaved yes); made in house; host or cells: E. coli BL21(DE3)
T1 sequence (Q9NQU5 383-674): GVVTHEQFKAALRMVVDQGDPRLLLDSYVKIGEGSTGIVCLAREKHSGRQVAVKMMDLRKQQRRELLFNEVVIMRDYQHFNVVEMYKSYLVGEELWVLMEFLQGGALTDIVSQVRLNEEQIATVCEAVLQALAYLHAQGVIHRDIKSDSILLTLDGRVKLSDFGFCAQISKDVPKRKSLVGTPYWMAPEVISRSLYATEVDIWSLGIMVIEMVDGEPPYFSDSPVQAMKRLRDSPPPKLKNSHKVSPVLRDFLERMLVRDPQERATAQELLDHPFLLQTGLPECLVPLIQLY
Description: Catalytic domain residues 383–674 of PAK6 (UniProt Q9NQU5) were amplified from cDNA (Open Biosystems) then subcloned into a modified pET-32 vector with an N-terminal 6xHis tag cleavable by TEV protease. A single colony of transformed E. coli BL21(DE3) was grown in Luria-Bertani (LB) medium at 37°C for 7 hours with kanamycin sulfate (100 µg/ml). Then the fresh culture was inoculated (1∶100) into in LB supplemented with kanamycin sulfate (100 µg/ml). Protein expression was induced at an A 600 of 0.4 by addition of 0.3 mM isopropyl-thio-galactopyranoside (IPTG) at 18°C for 14 hr. Cells were harvested and then resuspended in lysis buffer (50 mM HEPES pH 7.5, 500 mM NaCl, 0.5 mM TCEP, and 1 mM PMSF). Lysozyme and DNAse-I were added and the mixture was incubated on ice before three cycles of flash-freezing in a dry ice and ethanol mixture and thawing at 4°C. Following sonication and centrifugation, the supernatant was collected and loaded onto a nickel sepharose column equilibrated with 100 ml binding buffer (50 mM HEPES pH 7.5, 500 mM NaCl, 5 mM imidazole, 0.5 mM TCEP, 5% glycerol). Contaminating proteins were washed away with 200 ml wash buffer (50 mM HEPES pH 7.5, 500 mM NaCl, 30 mM imidazole, 0.5 mM TCEP, 5% glycerol). PAK6 catalytic domain was eluted with an imidazole step gradient and identified by SDS-PAGE. Overnight TEV cleavage was performed by adding TEV protease and dialyzing the mixture against size exclusion buffer (50 mM Tris pH 8, 250 mM NaCl, 5 mM TCEP). PAK6 catalytic domain was then reloaded onto the nickel sepharose column to remove remaining uncleaved protein. The sample then was loaded onto a Superdex 75 16/60 gel-filtration column equilibrated with size exclusion buffer.
Kinase activity was assessed using a radioactive assay with myelin basic protein (MBP) as substrate. […] Kinase assays were performed by adding 150 nM of PAK6, 2 µM of MBP as the substrate, 50 µM of cold-ATP and 0.1 µCi of hot [γ-^33P] ATP in Tris buffer (20 mM Tris-HCl pH 8.0, 0.15 M NaCl, 1 mM DTT and 10 mM MgCl2) for a total volume of 25 µl. […] Control peptide ([…]) was purchased from Anaspec and inhibition assays were performed using between 0.5 mM and 4.5 mM of peptide. The reaction was conducted at 30°C for 10 min and stopped by addition of 5X sample buffer and analyzed by SDS-PAGE. Gels were analyzed by exposure to phosphor storage screen (GE) followed by scanning using a Molecular Imager FX Pro Plus System (Bio-Rad) and quantification by optical densitometry Quantity One (Bio-Rad). Relative activities were compared to those measured for PAK6. Measurements were calculated from at least three independent experiments.

[4] = tested on: mouse models of cancer; settings: ref [22]; cited from earlier work
Description: (§2) ATP-competitive small molecule inhibitors of the type II PAKs could be useful as cancer therapeutics. […] Sunitinib (SU11248) is a potent ATP-competitive multi-kinase inhibitor that is indicated for treatment of renal cell carcinoma, imatinib-resistant gastrointestinal stromal tumors, advanced pancreatic neuroendocrine tumors and other tumor types [ ...

[5] = tested on: type II PAKs and also PAK1; settings: each of the type II PAKs and also PAK1; ref [22]; cited from earlier work
Description: as §2

[6] = tested on: human clinical trials; settings: ref [22]; cited from earlier work
Description: as §2

[7] = 150 nM PAK6, 2 µM MBP, 50 µM cold-ATP, [γ-33P] ATP, 20 mM Tris-HCl pH 8.0, 0.15 M NaCl, 1 mM DTT, 10 mM MgCl2, 30°C, 10 min, SDS-PAGE/phosphor storage screen, 3 independent experiments, tested wild-type 0.06-5.85 mM, P52L 1.8-5.85 mM, control 0.5-4.5 mM, read-out: IC50 (inhibition of PAK6 kinase activity)
[8] = 95% confidence interval of the IC50, 3 independent experiments, read-out: 95% confidence (of IC50)

CCN(CC)CCNC(=O)c1c(C)[nH]c(/C=C2\C(=O)Nc3ccc(F)cc32)c1C [Sunitinib]
inhibition of the PAK kinases overall [1]: weak inhibitor | selectivity ([1]; type II vs type I PAK family members): selectivity for type II over type I PAK family members | Ki [2]: 0.5 to 7 µM

APRTPGGRR [control peptide]
IC50 [3]: 3000 to 15000 µM

RRPKPVVDP [N-terminal peptide]
IC50 [3, 7]: 600 µM | IC50 [3, 8]: 510 to 710 µM

Cc1nc(Nc2[nH]nc3c2CN(C(=O)N[C@H](CN(C)C)c2ccccc2)C3(C)C)c2sccc2n1 [PF-3758309]
efficacy in mouse models of cancer [4]: effective in mouse models of cancer | in vitro activity [5]: displays in vitro activity against each of the type II PAKs and also PAK1 | outcome in human clinical trials [6]: failed in human clinical trials

RRPKLVVDP [P52L mutant peptide]
IC50 [3, 7]: 4200 µM | IC50 [3, 8]: 3800 to 4600 µM
